# Like-named read-outs stand apart in the source and are kept apart here.
# System: M.tuberculosis (Erdman)
# Assay type: in vivo
# Conditions: ESAT-6 10 µg/dose three times
Compound,"Log10 resistance Lung, Experiment I ([…]) [log10]","Log10 resistance Spleen, Experiment I ([…]) [log10]","Log10 resistance Lung, Experiment I (log10 reduction of bacterial load in lung 6 weeks after aerosol challenge) [log10]","Log10 resistance Spleen, Experiment I (log10 reduction of bacterial load in spleen 6 weeks after aerosol challenge) [log10]"
"CCCCCCCCCCCCCCCCCC[N+](C)(C)CCCCCCCCCCCCCCCCCC.[Br-] [DDA, dimethyl dioctadecyl ammonium bromide]",< 0.05,<0.05,–,–
monophosphoryl lipid A [MPL],–,–,< 0.05,<0.05

# Reference: patent EP1183044B1, “ADJUVANT COMBINATIONS FOR IMMUNIZATION AND VACCINES” (priority 1999, dated 2000)
